Data reported in patent US20230345975A1, “COMPOSITIONS AND METHODS OF PRESERVING MEAT SUBSTITUTES” (Wisconsin Alumni Research Foundation, priority 2016, published 2023).
Entries after “also recorded” stand apart in the source; their conditions may differ. Read-outs that look alike come from different tables or passages of the source.

Tests used:
[1] = molecular target: plant Hb (soybean hemoglobin; Lba) in meat analog (Glycine max, UniProt P02238); assay: Color stability of meat analog during refrigerated light display
Description: FIG. 1—Color stability of meat analog. Treatments: Water (W); 2.5 mmol/kg tissue Niacin (NA). Packaging: High oxygen package (80% O2, 20% CO2). Water content: 3% water capacity. Days under light (˜300 ft): 4 days under light display at 1-3° C.
FIG. 3—Effect of high oxygen during packaging. […] W-water added. All samples were stored at 1-3° C. during light display (300 foot candles).
The niacin can also be added to the solid plant protein/plant fat matrix already containing the added plant Hb. There is approximately 150 μmol of plant heme/kg meat analog. Therefore, a targeted final concentration of niacin would be 150 μmol/kg meat analog, which is equivalent to 18.5 mg niacin per kg meat analog.
Niacin is added to the meat analog already containing the plant Hb (soybean hemoglobin; Lba) and the product is stored under lights in high oxygen packaging during 4 days of refrigerated storage.

[2] = molecular target: soybean Hb (Lba) (Glycine max, UniProt P02238); assay: Redness (a-value) of Lba solutions after exposure to 35 fc of light for 4 days; conditions: for Redness (a-value) at day 4: 35 fc light, 4 days, main effect over pH
Description: FIG. 2—Effect of pH and different molar ratios of niacin to soybean Hb on the redness of Lba solutions. Measurement after exposure to 35 fc of light for 4 days
100 grams of meat analog containing a 3:1 dose of niacin would provide 5.9 mg niacin; a 6:1 dose would provide 11.8 mg niacin.

[3] = cited from earlier work
[4] = cited from earlier work; remark: listed apart in the source

Chain of soybean Hb (Lba) (P02238 whole entry): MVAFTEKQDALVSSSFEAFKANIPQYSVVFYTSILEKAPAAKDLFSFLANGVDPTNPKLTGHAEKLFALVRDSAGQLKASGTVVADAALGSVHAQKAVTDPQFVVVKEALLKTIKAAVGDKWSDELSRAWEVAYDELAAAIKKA
Chain of plant Hb (soybean hemoglobin; Lba) in meat analog (P02238 whole entry): as above

Compound: O=C1O[C@H]([C@@H](O)CO)C(O)=C1O [Ascorbic acid]
- color stabilization of meat analog ([1]; high oxygen packaging 80% O2/20% CO2, light display 300 foot candles, 1-3° C.): did not stabilize color

Compound: O=C(O)c1cccnc1 [niacin, nicotinic acid]
- color retention of meat analog ([1]; 2.5 mmol/kg niacin, high oxygen package (80% O2, 20% CO2), 4 days under light display at 1-3° C.): retains a superior color; also recorded: retain a pink color for four days
- time for which meat analog maintained color ([1]; storage entirely in 80% O2/20% CO2, light display 300 foot candles, 1-3° C.): ≤ 11 days
- ability to stabilize color in meat analog after change of packaging ([1]; transferred from 80% O2/20% CO2 at day 4 to air-permeable overwrap, assessed at day 8): lost
- stabilization of red color of Lba solution versus control with no niacin ([2]; 1:1 (niacin:Lba) ratio): stabilized red color better than control
- Redness (a-value) at day 4 ([2]; niacin:Lba molar ratio 1:1): 4.10c
- Redness (a-value) at day 4 ([2]; niacin:Lba molar ratio 3:1): 5.35b
- Redness (a-value) at day 4 ([2]; niacin:Lba molar ratio 6:1): 5.79a
- Tolerable Upper Intake Level (UL) ([3]; European Food Safety Authority): 10 mg/day
- Tolerable Upper Intake Level (UL) ([3]; Food and Nutrition Board of the U.S. Institute of Medicine): 35 mg/day

Compound: N[C@@H](Cc1c[nH]cn1)C(=O)O [histidine, Histidine]
- pKa ([4]; buffer): ~6
- pKa of the conjugate acid (protonated form) of the imidazole side chain [4]: approximately 6.0

Compound: Imidazole
- pKa as an acid ([4]; acidic proton on N-1): 14.5
- pKa of the conjugate acid (pKBH+) ([4]; as a base, basic site N-3): approximately 7
